Tested on: Human hair follicles in growth phase (anagen)
Experiment: Human hair follicle growth assay
Assay type: cell-based
Conditions: for Hair follicle length increase (mm), Treated: day 0 to day 7 in culture
Experimental: Human hair Follicle Growth Assay:
Human hair follicles in growth phase (anagen) were isolated from face-lift tissue (obtained from plastic surgeons) under dissecting scope using a scalpel and watchmakers forceps. The skin was sliced into thin strips exposing 2-3 rows of follicles that could readily be dissected. Follicles were placed into 0.5 ml William's E medium (Life Technologies, Gaithersburg, Md.) supplemented with 2 mM L-glutamine, 10 μg/ml insulin, 10 ng/ml hydrocortisone, 100 units of penicillin, 0.1 mg/ml streptomycin and 0.25 μg/ml amphotericin B. The follicles were incubated in 24-well plates (1 follicle/well) at 37° C. in an atmosphere of 5% CO2 and 95% air. Compounds are dissolved into dimethyl sulfoxide as 100-fold stock solution. The control hair follicles were treated with dimethyl sulfoxide without prostaglandin. The follicles were photographed in the 24-well plates under the dissecting scope at a power of 10×. Typically, image recordings were made on day 0 (day follicles were placed in culture), and again on day 7. The length of hair follicle was assessed using an image analysis software system. The growth of hair fiber was calculated by the subtracting the follicle length on day 0 from that determined on day 7.

[1] = dose 50 μM, vs dimethyl sulfoxide control
[2] = dose 1 μM, dose-dependence study
[3] = dose 5 μM, dose-dependence study
[4] = dose 10 μM, dose-dependence study
[5] = dose 30 μM, vs dimethyl sulfoxide control

Row | Structure (SMILES) | Hair follicle length increase (mm), Treated (dose 50 μM) | % Reduction of human hair follicle growth [1] | % Reduction of human hair follicle growth [2] | Growth of follicle (mm), Treated [2] | % Reduction of human hair follicle growth [3] | Growth of follicle (mm), Treated [3] | % Reduction of human hair follicle growth [4] | Growth of follicle (mm), Treated [4] | Hair follicle length increase (mm), Treated (dose 30 μM) | % Reduction of human hair follicle growth [5] | further results
1 | CCCCCC=CC=C1CCC(=O)C1C/C=C\CCCC(=O)O (centres unmarked) [9,10-Dihydro-15-deoxy-^Δ12,14-PGJ2, 9,10-dihydro-15-deoxy-Δ^12,14-PGJ2] | 0.02 ± 0.03 mm | 98.8 ± 1.9% |  |  |  |  |  |  |  |  | 
2 | C=C1C[C@H](O)[C@H](C/C=C\CCCC(=O)O)[C@H]1/C=C/[C@@H](O)CCCCC [11-Deoxy-11-methylene PGD2] | 1.11 ± 0.14 mm | 36.9 ± 8.0% |  |  |  |  |  |  |  |  | 
3 | CCCCC[C@@](C)(O)/C=C/[C@H]1C(=O)C[C@H](O)[C@@H]1C/C=C\CCCC(=O)O [15(R)-15-Methyl PGD2] | 0.04 ± 0.05 mm | 97.5 ± 3.1% |  |  |  |  |  |  |  |  | 
4 | CCCCC[C@](C)(O)/C=C/[C@H]1C(=O)C[C@H](O)[C@@H]1C/C=C\CCCC(=O)O [15(S)-15-Methyl PGD2] |  |  |  |  |  |  |  |  |  |  | Hair follicle length increase (mm), Treated (dose 100 μM): 0.08 ± 0.06 mm; % Reduction of human hair follicle growth (dose 100 μM, vs dimethyl sulfoxide control): 92.7 ± 5.5%
5 | CCCCC/C=C/C=C1/C(=O)C[C@H](O)[C@@H]1C/C=C\CCCC(=O)O [15-Deoxy-Δ^12,14-PGD2] | 0.10 ± 0.08 mm | 94.3 ± 4.5% |  |  |  |  |  |  |  |  | 
6 | CCCCC/C=C/C=C1/C(=O)C=C[C@@H]1C/C=C\CCCC(=O)O [15-Deoxy-Δ^12,14-PGJ2] |  |  | 0% | 1.42 ± 0.37 mm | 34.8% | 0.21 ± 0.13 mm | 94.3% | 0.08 ± 0.07 mm | 0.10 ± 0.09 mm | 94.7 ± 5.0% | 
7 | CCCCC(C)(C)[C@H](O)/C=C/[C@H]1C(=O)C[C@H](O)[C@@H]1C/C=C\CCCC(=O)O [16,16-Dimethyl PGD2] | 0.10 ± 0.05 mm | 94.3 ± 2.8% |  |  |  |  |  |  |  |  | 
8 | O=C(O)CCC/C=C\C[C@H]1[C@@H](O)CC(=O)[C@@H]1/C=C/[C@@H](O)CCc1ccccc1 [17-Phenyl trinor PGD2] | 0.10 ± 0.12 mm | 93.8 ± 7.4% |  |  |  |  |  |  |  |  | 
9 | CCCCC[C@H](O)/C=C/[C@H]1C(=O)C[C@H](O)[C@@H]1C/C=C\CCCC(=O)O [PGD2, prostaglandin D2] |  |  | 4.4% | 1.51 ± 0.28 mm | 12.7% | 1.38 ± 0.30 mm | 38.0% | 0.98 ± 0.32 mm | 0.24 ± 0.10 mm | 87.3 ± 5.0% | Hair growth inhibition profile (dose dependence, in words): dose dependent; Reduction of human hair follicle growth (in words): significant reduction of human hair follicle growth
10 | CCCCC[C@H](O)/C=C/[C@H]1C(=O)C=C[C@@H]1C/C=C\CCCC(=O)O [PGJ2] |  |  | 9.5% | 1.43 ± 0.34 mm | 34.8% | 1.03 ± 0.35 mm | 68.4% | 0.50 ± 0.29 mm | 0.16 ± 0.25 mm | 91.5 ± 13% | Hair growth inhibition profile (dose dependence, in words): dose dependent; Reduction of human hair follicle growth (in words): reduce hair growth
11 | CCCCC[C@H](O)C/C=C1/C(=O)C=C[C@@H]1C/C=C\CCCC(=O)O [Δ^12-PGJ2] |  |  | 0.7% | 1.40 ± 0.44 mm | 10.6% | 1.26 ± 0.38 mm | 77.3% | 0.32 ± 0.15 mm | 0.29 ± 0.46 mm | 84.6 ± 24% | 
